Assays:
Experiment in all cases: relative viability (nuclei count vs DMSO), 5 days (fraction); higher = more cells survive
RERF-LC-KJ = test system: RERF-LC-KJ
Procedure, shortened: (§1)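 Nuclei were stained with Hoechst during a one-step fixation (final 0.05% Triton X-100, 1% formaldehyde, 1 ug/ml Hoechst) carried out 5 days after dosing, then counted on 4× images. The cells, lung cancer lines in 1536-well plates, had been dosed by pin tool the day after seeding with one drug alone or a fixed anchor-drug dose plus five library-drug doses (not always all listed) in √10 steps. Relative viability is the nuclei count in treated wells divided by that in vehicle wells, and each value is the median of duplicate plates.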

EMC-BAC-2 = test system: EMC-BAC-2
Procedure, shortened: as §1

NCI-H1437 = test system: NCI-H1437
Procedure, shortened: as §1

NCI-H1734 = test system: NCI-H1734
Procedure, shortened: as §1

201T = test system: 201T
Procedure, shortened: as §1

LCLC-103H = test system: LCLC-103H
Procedure, shortened: as §1

NCI-H1792 = test system: NCI-H1792
Procedure, shortened: as §1

NCI-H661 = test system: NCI-H661
Procedure, shortened: as §1

NCI-H1395 = test system: NCI-H1395
Procedure, shortened: as §1

NCI-H1975 = test system: NCI-H1975
Procedure, shortened: as §1

UMC-11 = test system: UMC-11
Procedure, shortened: as §1

NCI-H1793 = test system: NCI-H1793
Procedure, shortened: as §1

SK-LU-1 = test system: SK-LU-1
Procedure, shortened: as §1

EPLC-272H = test system: EPLC-272H
Procedure, shortened: as §1

HCC-78 = test system: HCC-78
Procedure, shortened: as §1

NCI-H1651 = test system: NCI-H1651
Procedure, shortened: as §1

NCI-H647 = test system: NCI-H647
Procedure, shortened: as §1

LOU-NH91 = test system: LOU-NH91
Procedure, shortened: as §1

NCI-H2405 = test system: NCI-H2405
Procedure, shortened: as §1

NCI-H2023 = test system: NCI-H2023
Procedure, shortened: as §1

NCI-H1915 = test system: NCI-H1915
Procedure, shortened: as §1

NCI-H23 = test system: NCI-H23
Procedure, shortened: as §1

ABC-1 = test system: ABC-1
Procedure, shortened: as §1

Q: Which results are given for `O=C(O)CCCCC(CCSCc1ccccc1)SCc1ccccc1` (stereo not drawn) [CPI-613] + Cc1nc(Nc2ncc(C(=O)Nc3c(C)cccc3Cl)s2)cc(N2CCN(CCO)CC2)n1 [Dasatinib] (partner 0.075 µM)?
A: relative viability (RERF-LC-KJ; first compound 5 µM): 0.784; relative viability (RERF-LC-KJ; first compound 15.81 µM): 0.754; relative viability (RERF-LC-KJ; first compound 50 µM): 0.766; relative viability (RERF-LC-KJ; first compound 158.11 µM): 0.198; relative viability (RERF-LC-KJ; first compound 500 µM): 0.123; relative viability (EMC-BAC-2; first compound 5 µM): 0.303; relative viability (EMC-BAC-2; first compound 15.81 µM): 0.187; relative viability (EMC-BAC-2; first compound 50 µM): 0.309; relative viability (EMC-BAC-2; first compound 158.11 µM): 0.206; relative viability (EMC-BAC-2; first compound 500 µM): 0.0369; relative viability (NCI-H1437; first compound 5 µM): 0.388; relative viability (NCI-H1437; first compound 15.81 µM): 0.314; relative viability (NCI-H1437; first compound 50 µM): 0.381; relative viability (NCI-H1437; first compound 500 µM): 0.304; relative viability (NCI-H1734; first compound 5 µM): 0.411; relative viability (NCI-H1734; first compound 15.81 µM): 0.47; relative viability (NCI-H1734; first compound 50 µM): 0.413; relative viability (NCI-H1734; first compound 158.11 µM): 0.301; relative viability (NCI-H1734; first compound 500 µM): 0.105; relative viability (201T; first compound 5 µM): 0.553; relative viability (201T; first compound 15.81 µM): 0.527; relative viability (201T; first compound 50 µM): 0.488; relative viability (201T; first compound 158.11 µM): 0.352; relative viability (201T; first compound 500 µM): 0.303; relative viability (LCLC-103H; first compound 5 µM): 0.463; relative viability (LCLC-103H; first compound 15.81 µM): 0.472; relative viability (LCLC-103H; first compound 50 µM): 0.41; relative viability (LCLC-103H; first compound 158.11 µM): 0.422; relative viability (LCLC-103H; first compound 500 µM): 0.271; relative viability (NCI-H1792; first compound 5 µM): 0.772; relative viability (NCI-H1792; first compound 15.81 µM): 0.748; relative viability (NCI-H1792; first compound 50 µM): 0.789; relative viability (NCI-H1792; first compound 158.11 µM): 0.669; relative viability (NCI-H1792; first compound 500 µM): 0.766; relative viability (NCI-H661; first compound 5 µM): 0.863; relative viability (NCI-H661; first compound 15.81 µM): 0.83; relative viability (NCI-H661; first compound 50 µM): 0.798; relative viability (NCI-H661; first compound 158.11 µM): 0.312; relative viability (NCI-H661; first compound 500 µM): 0.155; relative viability (NCI-H1395; first compound 5 µM): 0.397; relative viability (NCI-H1395; first compound 15.81 µM): 0.352; relative viability (NCI-H1395; first compound 50 µM): 0.414; relative viability (NCI-H1395; first compound 158.11 µM): 0.409; relative viability (NCI-H1395; first compound 500 µM): 0.358; relative viability (NCI-H1975; first compound 5 µM): 0.377; relative viability (NCI-H1975; first compound 15.81 µM): 0.331; relative viability (NCI-H1975; first compound 50 µM): 0.347; relative viability (NCI-H1975; first compound 158.11 µM): 0.176; relative viability (NCI-H1975; first compound 500 µM): 0.111; relative viability (UMC-11; first compound 5 µM): 0.444; relative viability (UMC-11; first compound 15.81 µM): 0.417; relative viability (UMC-11; first compound 50 µM): 0.482; relative viability (UMC-11; first compound 158.11 µM): 0.144; relative viability (UMC-11; first compound 500 µM): 0.0883; relative viability (NCI-H1793; first compound 5 µM): 0.327; relative viability (NCI-H1793; first compound 15.81 µM): 0.317; relative viability (NCI-H1793; first compound 50 µM): 0.421; relative viability (NCI-H1793; first compound 158.11 µM): 0.165; relative viability (NCI-H1793; first compound 500 µM): 0.018; relative viability (SK-LU-1; first compound 5 µM): 0.176; relative viability (SK-LU-1; first compound 15.81 µM): 0.18; relative viability (SK-LU-1; first compound 50 µM): 0.187; relative viability (SK-LU-1; first compound 158.11 µM): 0.151; relative viability (SK-LU-1; first compound 500 µM): 0.0997; relative viability (EPLC-272H; first compound 5 µM): 0.317; relative viability (EPLC-272H; first compound 15.81 µM): 0.334; relative viability (EPLC-272H; first compound 50 µM): 0.449; relative viability (EPLC-272H; first compound 158.11 µM): 0.219; relative viability (EPLC-272H; first compound 500 µM): 0.0109; relative viability (HCC-78; first compound 5 µM): 0.358; relative viability (HCC-78; first compound 15.81 µM): 0.272; relative viability (HCC-78; first compound 50 µM): 0.408; relative viability (HCC-78; first compound 158.11 µM): 0.339; relative viability (HCC-78; first compound 500 µM): 0.342; relative viability (NCI-H1651; first compound 5 µM): 0.348; relative viability (NCI-H1651; first compound 15.81 µM): 0.387; relative viability (NCI-H1651; first compound 50 µM): 0.416; relative viability (NCI-H1651; first compound 158.11 µM): 0.282; relative viability (NCI-H1651; first compound 500 µM): 0.123; relative viability (NCI-H647; first compound 5 µM): 0.197; relative viability (NCI-H647; first compound 15.81 µM): 0.144; relative viability (NCI-H647; first compound 50 µM): 0.146; relative viability (NCI-H647; first compound 158.11 µM): 0.0387; relative viability (NCI-H647; first compound 500 µM): 0.0112; relative viability (LOU-NH91; first compound 5 µM): 0.564; relative viability (LOU-NH91; first compound 15.81 µM): 0.475; relative viability (LOU-NH91; first compound 50 µM): 0.532; relative viability (LOU-NH91; first compound 158.11 µM): 0.481; relative viability (LOU-NH91; first compound 500 µM): 0.499; relative viability (NCI-H2405; first compound 5 µM): 0.205; relative viability (NCI-H2405; first compound 15.81 µM): 0.176; relative viability (NCI-H2405; first compound 50 µM): 0.203; relative viability (NCI-H2405; first compound 158.11 µM): 0.201; relative viability (NCI-H2405; first compound 500 µM): 0.209; relative viability (NCI-H2023; first compound 5 µM): 0.552; relative viability (NCI-H2023; first compound 15.81 µM): 0.457; relative viability (NCI-H2023; first compound 50 µM): 0.483; relative viability (NCI-H2023; first compound 158.11 µM): 0.0687; relative viability (NCI-H2023; first compound 500 µM): 0.0087; relative viability (NCI-H1915; first compound 5 µM): 0.294; relative viability (NCI-H1915; first compound 15.81 µM): 0.244; relative viability (NCI-H1915; first compound 50 µM): 0.245; relative viability (NCI-H1915; first compound 158.11 µM): 0.228; relative viability (NCI-H1915; first compound 500 µM): 0.169; relative viability (NCI-H23; first compound 5 µM): 0.725; relative viability (NCI-H23; first compound 15.81 µM): 0.635; relative viability (NCI-H23; first compound 50 µM): 0.621; relative viability (NCI-H23; first compound 158.11 µM): 0.293; relative viability (NCI-H23; first compound 500 µM): 0.017; relative viability (ABC-1; first compound 5 µM): 0.561; relative viability (ABC-1; first compound 50 µM): 0.527; relative viability (ABC-1; first compound 158.11 µM): 0.232; relative viability (ABC-1; first compound 500 µM): 0.196

Source: the supplement of paper PMC10307832
